Earlier results on six compounds are cited in US20200397798A1, “COMBINATION THERAPIES WITH FARNESOID X RECEPTOR (FXR) MODULATORS” (Akarna Therapeutics, Ltd., priority 2016, published 2020).

The test system of one data set is KK-A(y) mice. Particulars: mouse, in vivo.
Data set [1] deals with plasma triglyceride levels. Particulars: human, in vivo.
Data set [2] has as its system DSS- and TNBS-induced intestinal inflammation. The conditions noted are these: wild type, but not Fxr−/− mice.
Data set [3] relates to CGD-susceptible C57L mice. The conditions noted are these: lithogenic diet supplemented with GW4064, 1 week.
Another data set relates to ob/ob and db/db mice. Particulars: mouse, in vivo.
In a further data set the test system is mice. The conditions noted are these: in vivo.
Data set [4] relates to patients with biopsy-proven NASH. The conditions noted are these: OCA arm, 25 mg orally daily.
The test system of data set [5] is C57BL/6 mice fed an MCD diet.

“Also recorded” adds a separate entry of the source.

`C[C@H](CCC(=O)O)[C@H]1CC[C@H]2[C@@H]3[C@H](O)C[C@@H]4C[C@H](O)CC[C@]4(C)[C@H]3C[C@H](O)[C@]12C` [CA]: the “hepatic TG accumulation and VLDL secretion” value in the data set with KK-A(y) mice is “prevented”. Regarding `C[C@H](CCC(=O)O)[C@H]1CC[C@H]2[C@@H]3[C@H](O)C[C@@H]4C[C@H](O)CC[C@]4(C)[C@H]3CC[C@]12C` [CDCA, chenodeoxycholic acid], the plasma triglyceride levels result in data set [1] was “decreased circulating TG levels; also recorded: reduces plasma triglyceride levels”.

As to `CC[C@H]1[C@@H](O)[C@@H]2[C@H](CC[C@]3(C)[C@@H]([C@H](C)CCC(=O)O)CC[C@@H]23)[C@@]2(C)CC[C@@H](O)C[C@@H]12` [Compound 6-ECDCA], in [2], the “expression of proinflammatory cytokines, chemokines and their receptors” value was “repressed”. For the compound `CC(C)c1onc(-c2c(Cl)cccc2Cl)c1COc1ccc(/C=C/c2cccc(C(=O)O)c2)c(Cl)c1` [GW4064], in data set [3], the CGD onset entry is “prevented CGD onset”. Also, the liver steatosis result in the data set on ob/ob and db/db mice was “able to prevent liver steatosis”. In the data set on T84 cells, the “Cl− secretory responses to Ca2+ and cAMP-dependent agonists” value is listed as “attenuated”; the “nuclear translocation of the receptor (FXR)” value is on record as “induced nuclear translocation”. Moreover, in the data set with mice, the “ovalbumin-induced diarrhea and cholera toxin-induced intestinal fluid accumulation” value is “reduced”. As to `CC[C@H]1[C@@H](O)[C@@H]2[C@H](CC[C@]3(C)[C@@H]([C@H](C)CCC(=O)O)CC[C@@H]23)[C@@]2(C)CC[C@@H](O)C[C@@H]12` [OCA, obeticholic acid], the “change in HDL, total cholesterol and LDL compared to placebo” value in data set [4] is “decrease in the high-density lipoprotein (HDL) and an increase in the total cholesterol and low-density lipoprotein (LDL)”.

As to `CC(C)OC(=O)C1=CN(C(=O)c2ccc(F)c(F)c2)CC(C)(C)c2c1[nH]c1ccccc21` [WAY-362450], in data set [5] (4 weeks treatment), the “elevations of serum ALT and AST induced by the MCD diet” value is given as “markedly reduced”. Moreover, the “hepatoprotective effects in FXR−/− mice” value in data set [5] (FXR−/− mice fed an MCD diet) is “abolished”.
